Assay results from patent publication US10095829B2, “Computer implemented methods of treating lung cancer” (WORLDWIDE INNOVATIVE NETWORK, priority 2009, dated 2018).

What was measured:
[1] = system: non-small cell lung carcinoma (NSCLC), cT4, N0, M1; experiment: Clinical course under treatment, patient of Example 1; format: in vivo, human; conditions: Example 1 patient, new subclavious metastasis
Excerpt: The patient was a person. They suffered of a non-small cell lung carcinoma (NSCLC), cT4, N0, M1. […] For HKI 272, the patient has been included in a clinical trial.
Lapatinib, an anti-HER1 and -HER2 inhibitor, was justified, even if no mutation was detected in EGFR, because EGF overexpressed 15 folds in the patient and it was needed to continue HKI 272.

[2] = system: primary bronchial adenocarcinoma with bilateral pulmonary metastases and asymptomatic cerebral metastases; experiment: Clinical course under treatment, patient of Example 3; format: in vivo, human; conditions: Example 3 patient
Excerpt: A patient was diagnosed in May 2007 for a primary bronchial adenocarcinoma with bilateral pulmonary metastases and asymptomatic cerebral metastases. A surgical treatment has been carried out in November 2008 and two therapeutic lines have been used, namely thirteen cycles of cisplatin-gemcitabin for the first line and Alimta for the second one.
However, based on this score table, avastin associated with a score of 384 has been selected.

[3] = system: bronchial adenocarcinoma T4 with bones and pleural metastases; conditions: Example 2 patient; for Clinical outcome: bronchial adenocarcinoma

Row | Compound | Clinical outcome [2] | Clinical outcome [3] | also measured
1 | CCOc1cc2ncc(C#N)c(Nc3ccc(OCc4ccccn4)c(Cl)c3)c2cc1NC(=O)/C=C/CN(C)C [HKI 272] |  |  | Duration of treatment until disease progression was observed [1]: 37 months
2 | Nc1nc2[nH]cc(CCc3ccc(C(=O)N[C@@H](CCC(=O)O)C(=O)O)cc3)c2c(=O)[nH]1 [PEMETREXED] | only associated with a disease progression |  | 
3 | C#Cc1cccc(Nc2ncnc3cc(OCCOC)c(OCCOC)cc23)c1 [Tarceva] |  | inefficient and led to a rapid progression | 
4 | CCC1=C[C@@H]2CN(C1)Cc1c([nH]c3ccccc13)[C@@](C(=O)OC)(c1cc3c(cc1OC)N(C)[C@H]1[C@@](O)(C(=O)OC)[C@H](OC(C)=O)[C@]4(CC)C=CCN5CC[C@]31[C@@H]54)C2 [VINORELBINE] |  | the disease was stable, then progressed | Survival conferred ([3]; treatment since January 2010): three months survival
5 | BEVACIZUMAB: VEGFA gene is regarded as major target gene for bevacizumab | major response has been observed after two treatment cycles |  | 
